# Laboratory results: patent US10555936B2, “Chemotherapeutic compositions and methods for treating human gliomas” (The Methodist Hospital, priority 2011, dated 2020)
# How the values were obtained:
# [1] = tested on: MAO-B; settings: previously-published work; cited from earlier work
# [2] = tested on: BT-111; test: Total cell protein mass, BCA/SDS method; format: cell-based, human; settings: BT-111, with 2 μM selegiline, 24 hr
# [3] = tested on: BT-115; test: Total cell protein mass, BCA/SDS method; format: cell-based, human; settings: BT-115, with 2 μM selegiline, 24 hr
# [4] = tested on: BT-111; test: Cell death, Hoechst viability stain; format: cell-based, human; settings: BT-111, high concentrations, 2 μM selegiline, 24 hrs
# [5] = tested on: BT-115; test: Cell death, Hoechst viability stain; format: cell-based, human; settings: BT-115, high concentrations, 2 μM selegiline, 24 hrs
# [6] = biological target: T1, hMAO-A (Homo sapiens, UniProt P21397); settings: Fierro and co-workers; cited from earlier work
# T1 sequence (P21397 1-527): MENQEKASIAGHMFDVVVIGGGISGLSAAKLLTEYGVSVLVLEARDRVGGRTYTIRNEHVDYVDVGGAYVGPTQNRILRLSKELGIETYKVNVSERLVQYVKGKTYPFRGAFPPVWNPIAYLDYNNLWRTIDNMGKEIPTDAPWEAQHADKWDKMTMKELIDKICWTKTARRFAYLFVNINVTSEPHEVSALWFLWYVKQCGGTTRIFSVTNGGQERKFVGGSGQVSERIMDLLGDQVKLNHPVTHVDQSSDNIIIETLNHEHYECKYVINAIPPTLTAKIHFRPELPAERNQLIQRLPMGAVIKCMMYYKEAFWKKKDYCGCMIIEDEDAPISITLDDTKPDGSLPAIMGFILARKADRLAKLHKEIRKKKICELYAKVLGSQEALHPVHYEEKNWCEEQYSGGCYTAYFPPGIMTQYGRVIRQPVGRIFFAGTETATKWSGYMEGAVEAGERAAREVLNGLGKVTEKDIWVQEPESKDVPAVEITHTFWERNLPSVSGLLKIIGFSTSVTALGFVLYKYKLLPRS
# [7] = tested on: BT-111 cells; format: cell-based, human
molecule,measurement,setting,value
"1-methyl-4-(3-methylfuran-yl)-1,2,3,6-tetrahydropyridine",MAO-B substrate quality,[1],excellent MAO-B substrates
"CN1CC=C(C2CCCCC2)CC1 [4-cyclohexyl-1-methyl-1,2,3,6-tetrahydropyridine]",MAO-B substrate quality,[1],excellent MAO-B substrates
"CCc1c2c(nc3ccc(OCCCN)cc13)-c1cc3c(c(=O)n1C2)COC(=O)[C@]3(O)CC [APE-SN38, 7-ethyl-10-(3-aminprop)-oxy-camptothecine]",protection by selegiline,[2],almost complete protection
same,protection by selegiline,[3],almost complete protection
same,cell death on co-incubation with selegiline,[4],could be arrested
same,cell death on co-incubation with selegiline,[5],could be arrested
CSc1ccc(CC(C)N)cc1 (centres unmarked) [MTA],times better at inhibiting hMAO-A than hMAO-B,[6],> 1000 times
C#CCN(C)[C@H](C)Cc1ccccc1 [Selegiline],effect on mitochondrial membrane potential,[7],no effect
